The source made the active and inactive calls. No rule for the calls is given here.
Tested on: T. cruzi-infected H9C2 cardiomyocytes, high-content imaging
Assay: anti-T. cruzi activity in infected cardiomyocytes – imaging, H9C2 host cardiomyocytes, host toxicity (AID 1159565);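 also: infected cells incubated 72 h after plating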
[1] = measured here: H9C2 host cell toxicity
[2] = measured here: amastigotes per cell

SMILES | IC50 | IC50 [1] | IC50 [2]
Cn1nc(-c2ccc(NC(=O)Cc3ccccc3Cl)cc2)c2c(N)ncnc21 | 1300 nM | 7900 nM | 1000 nM
CCn1c(NC(=O)Cc2ccc(F)cc2)nc2ccccc21 | 7900 nM | > 50000 nM | 4000 nM
Cn1ccnc1-c1nc(NCc2ccccc2Cl)cc(C2CC2)n1 | 790 nM | 630 nM | 790 nM
O=C(Nc1ccc(Br)c(Cl)c1)Nc1ccc2c(c1)OCO2 | 5000 nM | > 50000 nM | 2000 nM
COc1ccc(C(C)(C)C)cc1S(=O)(=O)n1ccnc1 | 200 nM | > 50000 nM | 200 nM
CN(C)CCN(C)Cc1ccc(F)cc1NS(=O)(=O)c1ccc(Cl)c(Cl)c1 | 2500 nM | 6300 nM | 2000 nM
O=C(CSc1nnc(-c2ccc3c(c2)OCO3)o1)N(Cc1ccco1)CC(F)(F)F | 3200 nM | > 50000 nM | 2500 nM
COc1ccc(Cl)cc1CC(=O)Nc1n[nH]c(-c2ccccn2)n1 | > 50000 nM (inactive) | > 50000 nM | 10000 nM
CCNc1cc(-c2ccccn2)nc(Nc2ccc(OC)cc2)n1 | 3200 nM | 320 nM | 2500 nM
NS(=O)(=O)c1ccc(Nc2ncc3cccc(OC4CCNCC4)c3n2)cc1 | 50 nM | 630 nM | 20 nM
O=C(Nc1nc2cc(Cl)ccc2o1)c1cccc(Cl)c1 | 790 nM | 2500 nM | 630 nM
O=c1cc(CSc2ccc(Cl)cc2)nc(-c2ccccn2)[nH]1 | 1600 nM | 3200 nM | 790 nM
Oc1cccnc1-c1n[nH]c(Cc2ccccc2)n1 | 7900 nM | 16000 nM | 6300 nM
Clc1ccc(CN2CCN(C3=NCCN3)CC2)cc1Cl | 10000 nM | > 50000 nM | 1000 nM
O=C(c1cccc(Nc2ncc(-c3ccc4c(c3)OCO4)cn2)c1)N1CCOCC1 | 1300 nM | 6300 nM | 790 nM
O=C(NCCCn1cnc2ccccc21)c1ccc(NC(=O)c2ccco2)cc1 | 2000 nM | > 50000 nM | 1300 nM
CC1=NN(C(=O)CCn2cnc([N+](=O)[O-])n2)C(O)(C(F)(F)F)C1 (stereo not given) | 6300 nM | > 50000 nM | 1300 nM
O=C(Nc1cccc(Cl)c1)N1CCCCC1c1cccnc1 (stereo not given) | 200 nM | > 50000 nM | 200 nM
Cn1c(CN2CCN(c3ncc(C(F)(F)F)cc3Cl)CC2)nc2ccncc21 | 1000 nM | > 50000 nM | 1000 nM
O=C1COC(c2ccccc2)(c2ccccc2)CN1C1CCN(Cc2ccc(-n3ccnc3)cc2)CC1 | 2000 nM | 32000 nM | 500 nM
CN(Cc1ccc(F)cc1)c1ccc(OCC(=O)N2CCCCC2c2cccnc2)nn1 (stereo not given) | 400 nM | > 50000 nM | 400 nM
Cc1ccc(Nc2nc(N)nc(CNC(c3nc4ccccc4[nH]3)C(C)C)n2)cc1 (stereo not given) | 7900 nM | > 50000 nM | 5000 nM
O=C1CN(Cc2ccco2)C2CS(=O)(=O)CC2N1c1ccc(Cl)cc1 (stereo not given) | > 50000 nM (inactive) | > 50000 nM | > 50000 nM
O=C(c1ccc(O)c(Cl)c1)N1CCN(c2cnccn2)CC1 | > 50000 nM (inactive) | > 50000 nM | 10000 nM
CCCCN(C(=O)c1ccc(NC(=O)C(C)C)cc1)c1ccccc1 | > 50000 nM (inactive) | > 50000 nM | 10000 nM

SMILES | IC50 | IC50 [1] | IC50 [2]
CCCN(Cc1ccc(OC)c(OC)c1)Cc1cc(=O)c2c(C)cc(C)cc2[nH]1 | 2000 nM | > 50000 nM | 500 nM
Cc1nc2c(-c3cccs3)c(C)nn2c(NCCO)c1C | 32000 nM | > 50000 nM | 16000 nM
COc1ccc(Nc2nccc(N(C)c3n[nH]c4c(F)cccc34)n2)cc1S(C)(=O)=O | 4000 nM | 7900 nM | 2000 nM
O=C(CN(Cc1ccccn1)Cc1ccccn1)NCc1ccc2c(c1)OCO2 | 13000 nM | > 79000 nM | 6300 nM
N#Cc1cccc(Cc2cc(Nc3cc(C4CC4)[nH]n3)nc(N3CC[C@H]3C(N)=O)n2)c1 | 4000 nM | 4 nM | 1000 nM
CC(C)Oc1cccc(N2CCC(C(=O)N3CCCN(C(C)C)CC3)CC2)c1 | 630 nM | > 50000 nM | 250 nM
OC[C@@H](Nc1nccc(-c2c(-c3ccc(F)cc3)ncn2C2CCNCC2)n1)c1ccccc1 | 13000 nM | 2000 nM | 13000 nM
Cc1ccccc1CNc1cc(C2CC2)nc(-c2nccn2C)n1 | 790 nM | 790 nM | 790 nM
O=C(NCC1CCCCN1C(=O)c1cccc2ccccc12)c1ccccc1 (stereo not given) | 5000 nM | > 50000 nM | 3200 nM
NC(=O)c1ncccc1Nc1nc(NC2CCC(O)CC2)ncc1Br (stereo not given) | 2000 nM | 630 nM | 500 nM
CC(C)Nc1nccc(-c2c(-c3ccc(F)cc3)ncn2C2CCOCC2)n1 | 320 nM | > 50000 nM | 200 nM
COc1ccc(C2=NCC(CSc3nnc(-c4ccc5c(c4)OCO5)o3)S2)cc1 (stereo not given) | 500 nM | > 50000 nM | 320 nM
Cc1nn2c(NCCCO)c3c(nc2c1-c1cccs1)CCC3 | 50000 nM | > 50000 nM | 5000 nM
NC(=O)c1cc(F)ccc1Nc1nc(NC2CCC(O)CC2)ncc1Cl (stereo not given) | 5000 nM | 1600 nM | 1600 nM
CCCCn1c(=O)c2c(N)onc2n(CCCC)c1=O | 32000 nM | 25000 nM | 25000 nM
O=C(Nc1cccc(S(=O)(=O)Nc2ccc(Br)cc2)c1)c1ccc([N+](=O)[O-])s1 | 130 nM | 2500 nM | 100 nM
CCCn1c(NC(=O)Cc2ccc(Cl)cc2)nc2ccccc21 | 2000 nM | > 50000 nM | 1300 nM
Cc1cccc(Nc2nc(-c3ccccn3)cs2)n1 | 1000 nM | 630 nM | 790 nM
O=C(c1cnn(-c2ccccc2)n1)N1CCCC(n2ccnc2)C1 (stereo not given) | 79 nM | > 50000 nM | 63 nM
COc1cc(OC)cc(C(NS(=O)(=O)c2ccc(Cl)c(C(F)(F)F)c2)c2nccn2C)c1 (stereo not given) | 6300 nM | 10000 nM | 3200 nM
c1cncc(CN(Cc2ccco2)Cc2cn[nH]c2-c2cccs2)c1 | 50 nM | > 50000 nM | 40 nM
N#Cc1ccc(S(=O)(=O)N2CCC3(CCN(c4ccccc4)C3=O)CC2)cc1 | 1000 nM | > 50000 nM | 630 nM
O=C(c1cccc(Nc2ncc(-c3ccc4c(c3)OCO4)cn2)c1)N1CCSC1 | 250 nM | 1000 nM | 200 nM
CC1=C(C(=O)Nc2ccc(Cl)cc2)C(c2ccncc2)n2ncc(C(=O)Nc3ccccc3)c2N1 (stereo not given) | 20 nM | > 50000 nM | 20 nM
CNc1nc(C)nc(N2CCc3cc(C(=O)NCc4ccc(-c5ccn[nH]5)cc4Cl)ccc32)n1 | > 50000 nM (inactive) | 20000 nM | > 50000 nM
